Entries after “also recorded” stand apart in the source; their conditions may differ. Peptide text beside a SMILES is read from it.
Columns and labels:
[1] = target: calmodulin (Bos taurus, UniProt P62157); test: koff by competition experiments, native PAGE of fluorescein-labelled peptide/calmodulin complexes; format: binding, bovine; parameters: Complexes between calmodulin from bovine brain (1 μM, Sigma); purchased Sigma; host or cells: bovine brain (tissue-derived); conditions: for dissociation from calmodulin in competition with excess unlabelled peptide, in words: FIG. 3; for koff: competition with 30-fold excess unlabelled peptide, room temperature, gel buffer, read-out: koff (s^-1)^C
Procedure: Complexes between calmodulin from bovine brain (1 μM, Sigma) and fluorescein-labelled sMLCK-derived peptides (as described in Table 1 (SEQ ID NOS:2-18)) were prepared in gel buffer (25% gel mix [4 g sucrose+1 mg bromophenol blue in water to give a 10 ml solution]+75% TBSC [50 mM TRIS pH 7.4, […]+50 μM CaCl2)] and run on a 15% native PAGE gel (5 ml 30% acrylamide-bisacrylamide solution+4.5 ml water+0.5 ml 3M Tris, pH 8.8, +1 μl 1M CaCl2 polymerised with 30 μl 25% ammonium persulphate and 9 μl TEMED) using 14.4 g/l glycine+3 g/l Tris-base+0.1 mM CaCl2 as running buffer. Peptides were labelled either with iodoacetamido fluorescein (Molecular Probes) or with iodoacetamido-LC-biotin (Pierce) essentially as previously described by Neri et al., (1995). In these conditions, the fluorescence of the positively-charged labelled peptides can be detected only if they form a stable complex with calmodulin.
In order to obtain an independent experimental confirmation if the BIAcore results, koff constants for peptides 1-17 towards calmodulin were determined by competition experiments. 30 nM fluorescein-labelled peptide/calmodulin complexes in gel buffer were competed at room temperature for different times with 30-fold excess of unlabelled peptide. The resulting mixtures were run on native PAGE gels and imaged by LUANA as described above. The bands in the image obtained were integrated using the LUANA software (Neri et al., 1996) and the corresponding intersities plotted versus time and fitted with a single exponential, from which koff constants were derived. In order to normalise band intensities against pipetting errors, the samples contained 6 nM free fluorescein which ran with the front. The fluorescein bands were integrated and used to normalise the calmodulin/fluorescent peptide complex band intensity. The results of competitions for peptides 1, 2, 3, 6, 9, and 14 are shown in this FIG. 3. Incubation time in minutes is indicated under the lanes.
The volumes of the bands were plotted versus competition time and fitted to a single exponential, from which koff values were derived.
The fastest competitions (peptides 1-4, 9 and 13, SEQ ID NOS:2-5,10, and 14) were over by the time the calmodulin/fluorescent peptide complex entered the gel (approximately 5-10 minutes from pipetting a molar excess of unlabelled peptide; FIG. 3), from which a condition on the off-rate constant koff >1×10^-3 s^-1 was derived. Even for these fast off-rates, complexes can be detected by native polyacrylamide gel electrophoresis because of the well known gel "cage effect" (Fried and Crothers, 1981; Garner and Revzin, 1981).

[2] = target: T1, bovine brain calmodulin (Bos taurus, UniProt P62157); test: stopped-flow measurement of kisom of calmodulin-binding peptides; conditions: changes in tryptophan fluorescence
T1 construct: Complexes between calmodulin from bovine brain (1 μM, Sigma); purchased Sigma; host or cells: bovine brain (tissue-derived)
Excerpt: It has been shown by Torok and Trentham (1994) that smooth muscle MLCK-derived peptides bind to calmodulin with a biphasic kinetic according to the scheme: [drawing 1]
in which P is the peptide, C is calmodulin, P-C is the first complex formed on association of P and C, which then undergoes a conformational isomerisation to P-C*.
(§1) For a kinetic and thermodynamic characterisation of the binding of the peptides of the present invention to bovine brain calmodulin, we have measured the kinetic isomerisation, association, and dissociation constants from which dissociation constants can be derived.
kisom constants have been measured by stopped-flow, detecting changes in tryptophan fluorescence for all the peptides except 3 (SEQ ID NO:4), in which the tryptophan is replaced by alanine.

[3] = target: T1, bovine brain calmodulin; test: BIAcore surface plasmon resonance, kon and koff of calmodulin binding to biotinylated peptides; conditions: for increase in kon with respect to the wild-type peptide 1 / koff / kon: BIAcore; for koff: read-out: koff (s^-1)^B; for kon: read-out: kon (s^-1 M^-1)^B; for improvement in Kd / affinity for calmodulin over the wild type peptide, in words: Table 1
Excerpt: as §1
koff =k-1·k-2 /(k+2 +k-2)
Real-time interaction analysis by surface plasmon resonance on a BIAcore instrument (Jonsson et al., 1991) was used to determine kon and koff constants. Biotinylated peptides 1-17 were bound to commercially available streptavidin-coated microsensor chips (Pharmacia Biosensor), in order to achieve a surface capacity of 100-200 surface plasmon resonance units of calmodulin bound. Different concentrations of calmodulin (5, 10, 20, 50 and 100 nM in the order of FIG. 2) were injected and allowed to associate with the peptides. Regeneration of the surface was achieved by injection of 5 μl TBS+[…] which dissociates the calmodulin-peptide complex.

| Structure (SMILES) | dissociation from calmodulin in competition with excess unlabelled peptide, in words [1] | koff [1] | kisom. (s^-1)^A [2] | increase in kon with respect to the wild-type peptide 1 [3] | koff [3] | kon [3] | improvement in Kd / affinity for calmodulin over the wild type peptide, in words [3] | improvement of koff with respect to wild type, in words [3] |
| --- | --- | --- | --- | --- | --- | --- | --- | --- |
| CC[C@H](C)[C@H](NC(=O)[C@H](Cc1ccccc1)NC(=O)[C@H](CC(N)=O)NC(=O)[C@H](CCCCN)NC(=O)[C@H](CCCCN)NC(=O)[C@H](Cc1c[nH]c2ccccc12)NC(=O)[C@H](CCCNC(=N)N)NC(=O)[C@H](C)NC(=O)[C@H](C)NC(=O)[C@H](C)NC(=O)[C@@H](N)CS)C(=O)N[C@@H](C)C(=O)N[C@H](C(=O)N[C@@H](CO)C(=O)N[C@@H](C)C(=O)N[C@@H](C)C(=O)N[C@@H](CC(N)=O)C(=O)N[C@@H](CCCNC(=N)N)C(=O)N[C@@H](Cc1ccccc1)C(=O)N[C@@H](C)C(=O)N[C@@H](CCCCN)C(=O)N[C@H](C(=O)N[C@@H](CO)C(N)=O)[C@@H](C)CC)C(C)C [Peptide 14] (H-CAAARWKKNFIAVSAANRFAKIS-NH2; N-terminus assumed) | intermediate off-rate | 0.00015 s⁻¹ | 1.6 (10.2) × 10^-2 s^-1 | 4-5 fold | 0.00014 s⁻¹ | 2.5e+06 M⁻¹ s⁻¹ | greatest improvement in affinity | – |
| CC[C@H](C)[C@H](NC(=O)[C@H](C)NC(=O)[C@H](CCCCN)NC(=O)[C@H](Cc1ccccc1)NC(=O)[C@H](CCCNC(=N)N)NC(=O)[C@H](CC(N)=O)NC(=O)[C@H](C)NC(=O)[C@H](C)NC(=O)[C@H](CO)NC(=O)[C@@H](NC(=O)[C@H](C)NC(=O)[C@@H](NC(=O)[C@H](Cc1ccccc1)NC(=O)[C@H](CC(N)=O)NC(=O)[C@H](CCCCN)NC(=O)[C@H](CCCCN)NC(=O)[C@H](Cc1c[nH]c2ccccc12)NC(=O)[C@H](CCCNC(=N)N)NC(=O)[C@H](C)NC(=O)[C@H](C)NC(=O)[C@H](C)NC(=O)[C@@H](N)CS)[C@@H](C)CC)C(C)C)C(=O)N[C@@H](CO)C(N)=O [Peptide 15] (H-CAAARWKKNFIAVSAANRFKAIS-NH2; N-terminus assumed) | – | 0.00021 s⁻¹ | 1.2 (10.3) × 10^-1 s^-1 | – | 0.00022 s⁻¹ | 1.1e+06 M⁻¹ s⁻¹ | – | – |
| CC[C@H](C)[C@H](NC(=O)[C@H](Cc1ccccc1)NC(=O)[C@H](C)NC(=O)[C@H](CCCCN)NC(=O)[C@H](CCCCN)NC(=O)[C@H](Cc1c[nH]c2ccccc12)NC(=O)[C@H](CCCNC(=N)N)NC(=O)[C@H](C)NC(=O)[C@H](C)NC(=O)[C@H](C)NC(=O)[C@@H](N)CS)C(=O)N[C@@H](C)C(=O)N[C@H](C(=O)N[C@@H](CO)C(=O)N[C@@H](C)C(=O)N[C@@H](C)C(=O)N[C@@H](CC(N)=O)C(=O)N[C@@H](CCCNC(=N)N)C(=O)N[C@@H](Cc1ccccc1)C(=O)N[C@@H](CCCCN)C(=O)N[C@@H](CCCCN)C(=O)N[C@H](C(=O)N[C@@H](CO)C(N)=O)[C@@H](C)CC)C(C)C [Peptide 6] (H-CAAARWKKAFIAVSAANRFKKIS-NH2; N-terminus assumed) | hardly competed by an excess of unlabelled peptide after 1000 minutes | 2.2e-06 s⁻¹ | 1.8 (10.9) × 10^-1 s^-1 | – | ≥ 0.0001 s⁻¹ | 980000 M⁻¹ s⁻¹ | greatest improvement in affinity; also recorded: greatest improvement in Kd | largest improvements |
| CC[C@H](C)[C@H](NC(=O)[C@H](CCCCN)NC(=O)[C@H](CCCCN)NC(=O)[C@H](Cc1ccccc1)NC(=O)[C@H](CCCNC(=N)N)NC(=O)[C@H](CC(N)=O)NC(=O)[C@H](C)NC(=O)[C@H](C)NC(=O)[C@H](CO)NC(=O)[C@@H](NC(=O)[C@H](C)NC(=O)[C@@H](NC(=O)[C@H](Cc1ccccc1)NC(=O)[C@H](CC(N)=O)NC(=O)[C@H](CCCCN)NC(=O)[C@H](CCCCN)NC(=O)[C@H](Cc1c[nH]c2ccccc12)NC(=O)[C@H](CCCNC(=N)N)NC(=O)[C@H](C)NC(=O)[C@H](C)NC(=O)[C@H](C)NC(=O)[C@@H](N)CS)[C@@H](C)CC)C(C)C)C(=O)N[C@@H](C)C(N)=O [Peptide 17] (H-CAAARWKKNFIAVSAANRFKKIA-NH2; N-terminus assumed) | – | 7e-05 s⁻¹ | 1.3 (10.4) × 10^-1 s^-1 | – | 0.00013 s⁻¹ | 820000 M⁻¹ s⁻¹ | greatest improvement in Kd | largest improvements |
| CC[C@H](C)[C@H](NC(=O)[C@H](Cc1ccccc1)NC(=O)[C@H](CC(N)=O)NC(=O)[C@H](CCCCN)NC(=O)[C@H](CCCCN)NC(=O)[C@H](Cc1c[nH]c2ccccc12)NC(=O)[C@H](CCCNC(=N)N)NC(=O)[C@H](C)NC(=O)[C@H](C)NC(=O)[C@H](C)NC(=O)[C@@H](N)CS)C(=O)N[C@@H](C)C(=O)N[C@H](C(=O)N[C@@H](CO)C(=O)N[C@@H](C)C(=O)N[C@@H](C)C(=O)N[C@@H](C)C(=O)N[C@@H](CCCNC(=N)N)C(=O)N[C@@H](Cc1ccccc1)C(=O)N[C@@H](CCCCN)C(=O)N[C@@H](CCCCN)C(=O)N[C@H](C(=O)N[C@@H](CO)C(N)=O)[C@@H](C)CC)C(C)C [Peptide 11] (H-CAAARWKKNFIAVSAAARFKKIS-NH2; N-terminus assumed) | – | 0.00049 s⁻¹ | 2.8 (10.6) × 10^-2 s^-1 | – | 0.00035 s⁻¹ | 940000 M⁻¹ s⁻¹ | – | – |
| CC[C@H](C)[C@H](NC(=O)[C@H](Cc1ccccc1)NC(=O)[C@H](CC(N)=O)NC(=O)[C@H](CCCCN)NC(=O)[C@H](CCCCN)NC(=O)[C@H](Cc1c[nH]c2ccccc12)NC(=O)[C@H](CCCNC(=N)N)NC(=O)[C@H](C)NC(=O)[C@H](C)NC(=O)[C@H](C)NC(=O)[C@@H](N)CS)C(=O)N[C@@H](C)C(=O)N[C@H](C(=O)N[C@@H](CO)C(=O)N[C@@H](C)C(=O)N[C@@H](C)C(=O)N[C@@H](CC(N)=O)C(=O)N[C@@H](CCCNC(=N)N)C(=O)N[C@@H](Cc1ccccc1)C(=O)N[C@@H](CCCCN)C(=O)N[C@@H](CCCCN)C(=O)N[C@@H](C)C(=O)N[C@@H](CO)C(N)=O)C(C)C [Peptide 16] (H-CAAARWKKNFIAVSAANRFKKAS-NH2; N-terminus assumed) | – | 0.00028 s⁻¹ | 8.7 (11.5) × 10^-2 s^-1 | – | 0.00031 s⁻¹ | 810000 M⁻¹ s⁻¹ | – | – |
| CC[C@H](C)[C@H](NC(=O)[C@H](Cc1ccccc1)NC(=O)[C@H](CC(N)=O)NC(=O)[C@H](CCCCN)NC(=O)[C@H](CCCCN)NC(=O)[C@H](C)NC(=O)[C@H](CCCNC(=N)N)NC(=O)[C@H](C)NC(=O)[C@H](C)NC(=O)[C@H](C)NC(=O)[C@@H](N)CS)C(=O)N[C@@H](C)C(=O)N[C@H](C(=O)N[C@@H](CO)C(=O)N[C@@H](C)C(=O)N[C@@H](C)C(=O)N[C@@H](CC(N)=O)C(=O)N[C@@H](CCCNC(=N)N)C(=O)N[C@@H](Cc1ccccc1)C(=O)N[C@@H](CCCCN)C(=O)N[C@@H](CCCCN)C(=O)N[C@H](C(=O)N[C@@H](CO)C(N)=O)[C@@H](C)CC)C(C)C [Peptide 3] (H-CAAARAKKNFIAVSAANRFKKIS-NH2; N-terminus assumed) | dissociated from calmodulin in a few minutes | ≥ 0.001 s⁻¹ | – | 4-5 fold | 0.005 s⁻¹ | 3.2e+06 M⁻¹ s⁻¹ | – | – |

From patent publication US6316409A, “Modified ligands of calcium-dependent binding proteins” (Medical Research Council, priority 1996, dated 2001)
